Assay results: US7410972B2, “Compounds” (AstraZeneca AB, priority 2001, dated 2008)

Target: T1, human recombinant CCR4 receptor (Homo sapiens, UniProt P51679)
T1 construct: Brussels, Belgium; host or cells: CHO-K1
T1 sequence (P51679 1-360): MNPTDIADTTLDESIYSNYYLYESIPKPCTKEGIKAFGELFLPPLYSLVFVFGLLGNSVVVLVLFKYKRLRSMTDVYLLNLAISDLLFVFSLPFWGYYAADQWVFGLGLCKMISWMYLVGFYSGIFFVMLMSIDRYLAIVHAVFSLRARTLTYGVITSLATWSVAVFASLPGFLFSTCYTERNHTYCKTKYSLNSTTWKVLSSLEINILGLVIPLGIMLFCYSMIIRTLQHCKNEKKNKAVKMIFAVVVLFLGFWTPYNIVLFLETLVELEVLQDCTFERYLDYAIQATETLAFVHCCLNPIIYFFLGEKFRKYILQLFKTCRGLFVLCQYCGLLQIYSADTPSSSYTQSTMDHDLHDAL
Assay: FMAT Whole Cell Binding Assay (FB-MDC binding to CHO-K1 cells expressing CCR4)
Conditions: CHO-K1 cells stably expressing human recombinant CCR4; inhibition of FB-MDC fluorescent probe binding, two hours incubation at room temperature
Procedure: FMAT Whole Cell Binding Assay
CHO-K1 cells stably expressing the human recombinant CCR4 receptor (Euroscreen; Brussels, Belgium) were cultured in NUT.MIX.F—12(HAM) medium with glutamax-1, containing 10% (v/v) foetal bovine serum and 400 μg ml^−1 geneticin.
Cells were harvested at approximately 70% confluence by treatment with a cell dissociation buffer, and seeded at 5×10^3 cells/100 μl culture medium into wells of a black Costar clear-bottomed 96-well microtitre plates. Plates were incubated overnight at 37° C. in 5% CO2 and used the following day.
Before use, the cell plates were washed twice with 100 μl Hanks balanced salt solution (HBSS). To each well was then added 65 μl of HBSS, 10 μL of 10% DMSO in HBSS±test compound and then 25 μL of 2.8 nM FB-MDC (Applied Biosystems). This fluorescent probe was prepared from a 10 μM stock in 0.08% (v/v) TFA/16% (v/v) acetonitrile, diluted into HBSS.
After two hours incubation in the dark at room temperature, the plates were analysed in an FMAT8100 reader (Applied Biosystems) to measure fluorescence that was associated with binding of FB-MDC to the cells. Compound activity was determined as an pIC50 [log(concentration of compound that results in 50% inhibition)], comparing fluorescence in control and background wells.
• Fluorescence (ctrl)=1200 • Fluorescence (bkg)=0

Structure (SMILES) | IC50
COc1nc(Br)cnc1NS(=O)(=O)c1ccc(Cl)s1 [Example 1, N-(5-Bromo-3-methoxy-2-pyrazinyl)-5-chloro-2-thiophenesulphonamide] | 0.0398 µM
COCCOc1nc(Br)cnc1NS(=O)(=O)c1ccc(Cl)s1 [Example 16, 5-Chloro-N-[5-bromo-3-(2-methoxyethoxy)-2-pyrazinyl]-2-thiophenesulphonamide] | 0.631 µM
Cc1cnc(NS(=O)(=O)c2ccc(Cl)s2)c(OCc2cccnc2)n1 [Example 23, 5-Chloro-N-[5-methyl-3-(3-pyridinylmethoxy)-2-pyrazinyl]-2-thiophenesulphonamide] | 0.01 µM

Tested on: not given
Assay: not given
Conditions: not given

melting point | Structure (SMILES)
179 to 181 °C | Cc1cnc(NS(=O)(=O)c2ccc(Cl)s2)c(OCc2cccnn2)n1 [Example 24, 5-Chloro-N-[5-methyl-3-(3-pyridazinylmethoxy)-2-pyrazinyl]-2-thiophenesulphonamide]
119 to 120 °C | COc1nccnc1NS(=O)(=O)c1ccc(Cl)s1 [Example 26, 5-Chloro-N-(3-methoxy-2-pyrazinyl)-2-thiophenesulphonamide]
95 to 96 °C | COc1nc(C)c(C)nc1NS(=O)(=O)c1ccc(Cl)s1 [Example 27, 5-Chloro-N-(5,6-dimethyl-3-methoxy-2-pyrazinyl)-2-thiophenesulphonamide]
192 to 194 °C | COc1nc(SCCN)cnc1NS(=O)(=O)c1ccc(Cl)s1 [Example 30, N-[5-{(2-Aminoethyl)sulpanyl}-3-methoxy-2-pyrazinyl]-5-chloro-2-thiophenesulphonamide]
218 to 219 °C | COc1nc(C#N)cnc1NS(=O)(=O)c1ccc(Cl)s1 [Example 31, 5-Chloro-N-[5-cyano-3-methoxy-2-pyrazinyl]-2-thiophenesulphonamide]
109 to 110 °C | O=S(=O)(Nc1nccnc1OCc1ccccn1)c1ccc(Cl)s1 [Example 25, 5-Chloro-N-[3-(2-pyridinylmethoxy)-2-pyrazinyl]-2-thiophenesulphonamide]

Further lines, the compound ahead of its results:

Structure (SMILES) | melting point
O=S(=O)(Nc1nc(Cl)cnc1OCc1ccccn1)c1ccc(Cl)s1 [Example 22] | 171 to 172 °C
Cc1cc(COc2ncc(Cl)nc2NS(=O)(=O)c2ccc(Cl)s2)no1 [Example 21, 5-Chloro-N-[6-chloro-3-(5-methyl-3-isoxazolylmethoxy)2-pyrazinyl]-2-thiophenesulphonamide] | 141 to 142 °C
Cc1cnc(NS(=O)(=O)c2ccc(Cl)s2)c(OCc2cccnc2)n1 [Example 23, 5-Chloro-N-[5-methyl-3-(3-pyridinylmethoxy)-2-pyrazinyl]-2-thiophenesulphonamide] | 204 to 205 °C
O=S(=O)(Nc1nc(Cl)cnc1OCc1ccco1)c1ccc(Cl)s1 [Example 20, 5-Chloro-N-[6 chloro-3-(2-furanylmethoxy)-2-pyrazinyl]-2-thiophenesulphonamide] | 130 to 133 °C
